Experimental data reported in patent US20100267561A1, “HERBICIDAL PYRIDAZINONE DERIVATIVES” (priority 2007, published 2010).

Experiments:
Assay type in all cases: in vivo
[1] = system: Italian ryegrass (Lolium multiflorum); assay: Test C pre-/postemergence plant response
Excerpt: (§1) Seeds of plant species selected from annual bluegrass (Poa annua), blackgrass (Alopecurus myosuroides), canola (Brassica rapa), downy bromegrass (Bromus tectorum), green foxtail (Setaria viridis), Italian ryegrass (Lolium multiflorum), canarygrass (Phalaris minor), pigweed (Amaranthus retroflexus), spring barley (Hordeum vulgare), spring wheat (Triticum aestivum), wild mustard (Sinapis arvensis), wild oat (Avena fatua), windgrass (Apera spica-venti), winter barley (Hordeum vulgare), and winter wheat (Triticum aestivum) were planted and treated preemergence with test chemicals formulated in a non-phytotoxic solvent mixture which included a surfactant. At the same time, plants selected from these crop and weed species were treated with postemergence applications of some of the test chemicals formulated in the same manner. Plants ranged in height from 2 to 18 cm (1- to 4-leaf stage) for postemergence treatments.
(§2) Treated plants and controls were maintained in a controlled growth environment for 15 to 25 days after which time all species were compared to controls and visually evaluated. Plant response ratings, summarized in Table C, are based on a scale of 0 to 100 where 0 is no effect and 100 is complete control. A dash (-) response means no test result.

[2] = system: spring wheat (Triticum aestivum); assay: Test C pre-/postemergence plant response
Excerpt: as §1, §2

[3] = system: winter barley (Hordeum vulgare); assay: Test C pre-/postemergence plant response
Excerpt: as §1, §2

[4] = system: wild oat (Avena fatua); assay: Test C pre-/postemergence plant response
Excerpt: as §1, §2

[5] = system: green foxtail (Setaria viridis); assay: Test C pre-/postemergence plant response
Excerpt: as §1, §2

[6] = system: downy bromegrass (Bromus tectorum); assay: Test C pre-/postemergence plant response
Excerpt: as §1, §2

[7] = system: windgrass (Apera spica-venti); assay: Test C pre-/postemergence plant response
Excerpt: as §1, §2

[8] = system: spring barley (Hordeum vulgare); assay: Test C pre-/postemergence plant response
Excerpt: as §1, §2

[9] = system: annual bluegrass (Poa annua); assay: Test C pre-/postemergence plant response
Excerpt: as §1, §2

[10] = system: pigweed (Amaranthus retroflexus); assay: Test C pre-/postemergence plant response
Excerpt: as §1, §2

[11] = system: winter wheat (Triticum aestivum); assay: Test C pre-/postemergence plant response
Excerpt: as §1, §2

[12] = system: blackgrass (Alopecurus myosuroides); assay: Test C pre-/postemergence plant response
Excerpt: as §1, §2

[13] = system: canarygrass (Phalaris minor); assay: Test C pre-/postemergence plant response; conditions: Preemergence
Excerpt: as §1, §2

[14] = system: wild mustard (Sinapis arvensis); assay: Test C pre-/postemergence plant response
Excerpt: as §1, §2

[15] = system: wheat (Triticum aestivum); assay: Test A pre-/postemergence plant response
In short: (§3)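 Scores reflect visual plant injury relative to untreated controls on a 0–100 scale, recorded approximately 10 days after simultaneous preemergence soil spraying and postemergence spraying of one- to two-leaf seedlings grown in loam–sand.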

[16] = system: pigweed (Amaranthus retroflexus); assay: Test A pre-/postemergence plant response
In short: as §3

[17] = Postemergence, 8 g ai/ha, scale 0 to 100, 0 no effect, 100 complete control
[18] = Postemergence, 16 g ai/ha, scale 0 to 100, 0 no effect, 100 complete control
[19] = Postemergence, 31 g ai/ha, scale 0 to 100, 0 no effect, 100 complete control
[20] = Postemergence, 62 g ai/ha, scale 0 to 100, 0 no effect, 100 complete control
[21] = Preemergence, 8 g ai/ha, scale 0 to 100 (0 no effect, 100 complete control)
[22] = Preemergence, 16 g ai/ha, scale 0 to 100 (0 no effect, 100 complete control)
[23] = Preemergence, 31 g ai/ha, scale 0 to 100 (0 no effect, 100 complete control)
[24] = Preemergence, 62 g ai/ha, scale 0 to 100, 0 no effect, 100 complete control
[25] = Postemergence, 125 g ai/ha, 0 to 100 scale, 0 no effect, 100 complete control
[26] = Postemergence, 500 g ai/ha, 0 to 100 scale, 0 no effect, 100 complete control
[27] = Preemergence, 125 g ai/ha, 0 to 100 scale (0 no effect, 100 complete control)
[28] = Preemergence, 500 g ai/ha, 0 to 100 scale (0 no effect, 100 complete control)

Structure (SMILES): Cc1nn(C)c(=O)c(-n2nc(-c3ccc(Cl)cc3)cc2C)c1O [Compound 15]
- Plant response rating, Ryegrass, Italian [1, 17]: 50
- Plant response rating, Ryegrass, Italian [1, 18]: 100
- Plant response rating, Ryegrass, Italian [1, 19]: 100
- Plant response rating, Ryegrass, Italian [1, 20]: 100
- Plant response rating, Ryegrass, Italian [1, 21]: 15
- Plant response rating, Ryegrass, Italian [1, 22]: 100
- Plant response rating, Ryegrass, Italian [1, 23]: 100
- Plant response rating, Ryegrass, Italian [1, 24]: 100
- Plant response rating, Wheat, Spring [2, 17]: 0
- Plant response rating, Wheat, Spring [2, 18]: 0
- Plant response rating, Wheat, Spring [2, 19]: 15
- Plant response rating, Wheat, Spring [2, 20]: 70
- Plant response rating, Wheat, Spring [2, 21]: 0
- Plant response rating, Wheat, Spring [2, 22]: 10
- Plant response rating, Wheat, Spring [2, 23]: 35
- Plant response rating, Wheat, Spring [2, 24]: 70
- Plant response rating, Barley, Winter [3, 17]: 0
- Plant response rating, Barley, Winter [3, 18]: 0
- Plant response rating, Barley, Winter [3, 19]: 10
- Plant response rating, Barley, Winter [3, 20]: 90
- Plant response rating, Barley, Winter [3, 21]: 0
- Plant response rating, Barley, Winter [3, 22]: 20
- Plant response rating, Barley, Winter [3, 23]: 50
- Plant response rating, Barley, Winter [3, 24]: 60
- Plant response rating, Oat, Wild [4, 17]: 0
- Plant response rating, Oat, Wild [4, 18]: 25
- Plant response rating, Oat, Wild [4, 19]: 90
- Plant response rating, Oat, Wild [4, 20]: 90
- Plant response rating, Oat, Wild [4, 21]: 0
- Plant response rating, Oat, Wild [4, 23]: 50
- Plant response rating, Oat, Wild [4, 24]: 65
- Plant response rating, Foxtail, Green [5, 17]: 90
- Plant response rating, Foxtail, Green [5, 18]: 95
- Plant response rating, Foxtail, Green [5, 19]: 98
- Plant response rating, Foxtail, Green [5, 20]: 98
- Plant response rating, Foxtail, Green [5, 21]: 60
- Plant response rating, Foxtail, Green [5, 22]: 98
- Plant response rating, Foxtail, Green [5, 23]: 100
- Plant response rating, Foxtail, Green [5, 24]: 100
- Plant response rating, Bromegrass, Downy [6, 17]: 0
- Plant response rating, Bromegrass, Downy [6, 18]: 15
- Plant response rating, Bromegrass, Downy [6, 19]: 20
- Plant response rating, Bromegrass, Downy [6, 20]: 30
- Plant response rating, Bromegrass, Downy [6, 21]: 0
- Plant response rating, Bromegrass, Downy [6, 22]: 20
- Plant response rating, Bromegrass, Downy [6, 23]: 35
- Plant response rating, Bromegrass, Downy [6, 24]: 70
- Plant response rating, Windgrass [7, 17]: 0
- Plant response rating, Windgrass [7, 18]: 0
- Plant response rating, Windgrass [7, 19]: 0
- Plant response rating, Windgrass [7, 20]: 40
- Plant response rating, Windgrass [7, 22]: 25
- Plant response rating, Windgrass [7, 23]: 75
- Plant response rating, Windgrass [7, 24]: 95
- Plant response rating, Barley, Spring [8, 17]: 0
- Plant response rating, Barley, Spring [8, 18]: 0
- Plant response rating, Barley, Spring [8, 19]: 0
- Plant response rating, Barley, Spring [8, 20]: 50
- Plant response rating, Barley, Spring [8, 21]: 0
- Plant response rating, Barley, Spring [8, 22]: 0
- Plant response rating, Barley, Spring [8, 23]: 40
- Plant response rating, Barley, Spring [8, 24]: 65
- Plant response rating, Bluegrass [9, 17]: 0
- Plant response rating, Bluegrass [9, 18]: 25
- Plant response rating, Bluegrass [9, 19]: 40
- Plant response rating, Bluegrass [9, 20]: 50
- Plant response rating, Bluegrass [9, 21]: 40
- Plant response rating, Bluegrass [9, 22]: 60
- Plant response rating, Bluegrass [9, 23]: 75
- Plant response rating, Bluegrass [9, 24]: 90
- Plant response rating, Pigweed [10, 17]: 0
- Plant response rating, Pigweed [10, 18]: 0
- Plant response rating, Pigweed [10, 19]: 0
- Plant response rating, Pigweed [10, 20]: 0
- Plant response rating, Pigweed [10, 21]: 0
- Plant response rating, Pigweed [10, 22]: 0
- Plant response rating, Pigweed [10, 23]: 0
- Plant response rating, Pigweed [10, 24]: 0
- Plant response rating, Wheat, Winter [11, 17]: 0
- Plant response rating, Wheat, Winter [11, 18]: 0
- Plant response rating, Wheat, Winter [11, 19]: 0
- Plant response rating, Wheat, Winter [11, 20]: 25
- Plant response rating, Wheat, Winter [11, 21]: 0
- Plant response rating, Wheat, Winter [11, 22]: 0
- Plant response rating, Wheat, Winter [11, 23]: 20
- Plant response rating, Wheat, Winter [11, 24]: 25
- Plant response rating, Blackgrass [12, 17]: 75
- Plant response rating, Blackgrass [12, 18]: 95
- Plant response rating, Blackgrass [12, 19]: 98
- Plant response rating, Blackgrass [12, 20]: 100
- Plant response rating, Blackgrass [12, 21]: 70
- Plant response rating, Blackgrass [12, 22]: 80
- Plant response rating, Blackgrass [12, 23]: 95
- Plant response rating, Blackgrass [12, 24]: 98
- Plant response rating, Canarygrass ([13]; 8 g ai/ha, scale 0 to 100 (0 no effect, 100 complete control)): 20
- Plant response rating, Canarygrass ([13]; 16 g ai/ha, scale 0 to 100 (0 no effect, 100 complete control)): 70
- Plant response rating, Canarygrass ([13]; 31 g ai/ha, scale 0 to 100 (0 no effect, 100 complete control)): 80
- Plant response rating, Canarygrass ([13]; 62 g ai/ha, scale 0 to 100, 0 no effect, 100 complete control): 95
- Plant response rating, Mustard, Wild [14, 17]: 0
- Plant response rating, Mustard, Wild [14, 18]: 0
- Plant response rating, Mustard, Wild [14, 19]: 0
- Plant response rating, Mustard, Wild [14, 20]: 20
- Plant response rating, Mustard, Wild [14, 21]: 0
- Plant response rating, Mustard, Wild [14, 22]: 0
- Plant response rating, Mustard, Wild [14, 23]: 0
- Plant response rating, Wheat [15, 25]: 50
- Plant response rating, Wheat [15, 26]: 60
- Plant response rating, Wheat [15, 27]: 60
- Plant response rating, Wheat [15, 28]: 80
- Plant response rating, Pigweed [16, 25]: 0
- Plant response rating, Pigweed [16, 26]: 0
- Plant response rating, Pigweed [16, 27]: 0
- Plant response rating, Pigweed [16, 28]: 0
